Laboratory results reported in patent US5399565A, “Pyrazolidinone CCK and gastrin antagonists and pharmaceutical formulations therof” (priority 1993, dated 1995).

Experiments:
[1] = target: T1, brain CCK receptor (Mus musculus, UniProt P56481); assay: CCK receptor binding, mouse brain membranes (125I-CCK-8 sulfate); settings: for IC50: mouse brain membranes, read-out: Brain IC50; for inhibition at 1 µM / inhibition at 10 µM: read-out: Brain Percent Inhibition
T1 construct: from tissue; host or cells: forebrain membranes of male CF-1 mice
T1 sequence (P56481 1-453): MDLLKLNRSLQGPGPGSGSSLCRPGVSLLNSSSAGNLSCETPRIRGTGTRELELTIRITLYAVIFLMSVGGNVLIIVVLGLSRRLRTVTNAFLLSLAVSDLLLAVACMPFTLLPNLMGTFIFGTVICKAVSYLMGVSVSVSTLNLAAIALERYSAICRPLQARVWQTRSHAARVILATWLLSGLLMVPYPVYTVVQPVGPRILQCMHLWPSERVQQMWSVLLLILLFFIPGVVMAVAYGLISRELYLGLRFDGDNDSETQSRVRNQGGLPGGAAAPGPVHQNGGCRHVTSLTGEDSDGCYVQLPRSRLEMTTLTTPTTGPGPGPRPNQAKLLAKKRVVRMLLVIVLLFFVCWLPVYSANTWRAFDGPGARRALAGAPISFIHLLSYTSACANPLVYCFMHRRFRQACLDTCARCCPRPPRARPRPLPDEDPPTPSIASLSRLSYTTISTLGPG
Experimental: Brain CCK receptor binding was performed using mouse brain membranes according to the method of Chang and Lotti (Proc. Natl. Acad. Sci. 83: 4923-4926, 1986). Male CF-1 mice, 23-25 g were sacrificed by cervical dislocation, the forebrain removed and placed in ice cold 50 mM Tris buffer, pH 7.4. The tissue was homogenized in 100 volumes of the Tris buffer with a Brinkman Polytron or Tekmar Tissumizer and then centrifuged at 40,000 g for 10 min. Pellets were resuspended in Tris buffer, centrifuged as above and then resuspended in 100 volumes of assay buffer, pH 6.5 (20 mM N-2-hydroxyethyl-piperazine-N'-2-ethane sulfonic acid (HEPES), 1 mM ethylene glycol his (2-aminoethyl ether-N,N,N',N'-tetraacetic acid) (EGTA), 5 mM MgCl2, 130 mM NaCl, and 0.25 mg/ml bacitracin). The binding assay consisted of 50 μL of compound (or buffer for total binding), 50 μL of ^125 I-CCK-8 sulfate (20 pM) (Amersham IM- 159), 200 μL of assay buffer and 200 μL of homogenate (80-120 μg protein). The samples were incubated at room temperature (25°) for 2 hours, and they were then filtered through GF/B glass fiber filters (soaked in wash buffer for 2 hours before use) using a 48 well Brandel cell harvester designed for receptor binding. The filters were washed twice with 3 ml of 50 mM Tris buffer, pH 7.4, containing 0.01% BSA and then counted for radioactivity in plastic tubes with a Micromedic 10/600 automatic gamma counter.
Compounds were dissolved in dimethyl sulfoxide (DMSO) at a concentration of 10 mM and then further diluted with assay buffer. The concentration of DMSO in the incubation was 0.1% or less and had no effect on the assay at that level. IC-50 values of displacement curves were determined using 7 concentrations of compound and were calculated using the ALLFIT computer program of DeLean, Munson and Rodbard (Am. J. Physiol. 235: E97-E102, 1978). Non-specific binding was determined as the displacement of the radioligand by 100 nM CCK-8 sulfate.

[2] = target: T2, peripheral type CCK receptors in rat pancreas (Rattus norvegicus, UniProt P30551); assay: Binding to peripheral type CCK receptors in rat pancreas (3H-L-364,718); settings: for inhibition at 10 µM: read-out: Pancreas Percent Inhibition; for IC50: rat pancreas
T2 construct: Pancreas was obtained from male Sprague-Dawley rats; from tissue; host or cells: pancreas membranes of male Sprague-Dawley rats
T2 sequence (P30551 1-444): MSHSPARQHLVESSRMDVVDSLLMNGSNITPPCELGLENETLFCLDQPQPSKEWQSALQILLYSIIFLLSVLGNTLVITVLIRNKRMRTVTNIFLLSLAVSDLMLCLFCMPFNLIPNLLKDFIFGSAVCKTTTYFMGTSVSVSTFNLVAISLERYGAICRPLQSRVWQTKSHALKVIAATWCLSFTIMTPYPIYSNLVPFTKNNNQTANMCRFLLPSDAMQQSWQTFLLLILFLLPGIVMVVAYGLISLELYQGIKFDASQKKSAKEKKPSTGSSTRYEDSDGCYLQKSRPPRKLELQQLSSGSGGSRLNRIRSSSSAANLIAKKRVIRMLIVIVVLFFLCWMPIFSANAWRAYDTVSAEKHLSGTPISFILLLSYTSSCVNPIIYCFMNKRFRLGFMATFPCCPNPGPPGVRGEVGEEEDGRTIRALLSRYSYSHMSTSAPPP
Experimental: Binding to peripheral type CCK receptors in rat pancreas was done according to the method of Chang et al. (Mol. Pharmacol. 30: 212-217, 1986) using ^3 H-L364, 718. Pancreas was obtained from male Sprague-Dawley rats, 150-200 g, after decapitation, and dissected free from adipose and connective tissue. The tissue was homogenized in 30 volumes of 50 mM Tris buffer, pH 7.4 and centrifuged at 40,000 g for 10 min. The tissue pellet was washed by resuspension and centrifugation as described above. The final pellet was suspended in 500 volumes of assay buffer (50 mM Tris buffer, pH 7.4, 5 mM MgCl2, 0.14 mg/ml bacitracin, and 5 mM dithiothreitol) to give a protein concentration of 30-60 μg/200 μl . Reagent volumes for the assay were the same as those used for CCK binding to brain membranes. Tritium labeled L-364,718 (Dupont NEN, NET-971) was used as the ligand at a concentration of 0.4-0.6 nM. The samples were incubated 1 hour at room temperature and then filtered as described for the CCK-brain receptor. Scintillation cocktail was added to the filters which were counted for radioactivity using a Micromedic Taurus automatic liquid scintillation counter.
Compound samples were prepared and IC-50 values were determined as described for the CCK-brain experiments. Non-specific binding was that amount left bound to the filters after adding 100 nM L-364,718.

SMILES	IC50 [1] [µM]	inhibition at 10 µM [2] [%]	also measured
CCCCc1ccc(NC(=O)N2NC(=O)[C@@H](c3ccccc3)[C@@H]2c2ccccc2)cc1 (relative stereo) [Example 28]	0.44	55	–
O=C(Nc1ccc(C(F)(F)F)cc1)N1N[C@@H](c2ccccc2)[C@H](c2ccccc2)C1=O (relative stereo) [Example 83]	–	12	inhibition at 1 µM [1]: 37%
O=C1NN(C(=O)Nc2cccc(C(F)(F)F)c2)[C@@H](c2ccccc2)[C@@H]1c1ccccc1 (relative stereo) [Example 39]	0.33	52	–
CCCCC1C(c2ccccc2)C(=O)NN1C(=O)Nc1ccc(C(F)(F)F)cc1 (centres unmarked) [Example 71]	1.2	39	–
CC(=O)c1ccc(NC(=O)N2NC(=O)[C@@H](c3ccccc3)[C@@H]2c2ccccc2)cc1 (relative stereo) [Example 23]	0.49	23	–
COc1ccc(NC(=O)N2NC(=O)[C@H](c3ccccc3)[C@H]2c2ccccc2)cc1OC (relative stereo) [Example 51]	–	25	inhibition at 1 µM [1]: 18%
CCOC(=O)c1ccc(NC(=O)N2NC(=O)[C@@H](c3ccccc3)[C@@H]2c2ccccc2)cc1 (relative stereo) [Example 22]	–	27	inhibition at 1 µM [1]: 42%
O=C1NN(C(=S)Nc2ccc(Cl)c(C(F)(F)F)c2)[C@H](c2ccccc2)[C@H]1c1ccccc1 (relative stereo) [Example 63]	0.51	–	IC50 [2]: 0.075 µM
CCCCC1C(=O)NN(C(=O)Nc2ccc(Br)cc2)C1c1ccccc1 (centres unmarked) [Example 69]	0.5	12	–
O=C1NN(C(=O)Nc2ccc([N+](=O)[O-])cc2)[C@@H](c2ccccc2)[C@@H]1c1ccccc1 (relative stereo) [Example 24]	0.15	45	–
O=C1NN(C(=S)Nc2cnc3ccccc3c2)[C@@H](c2ccccc2)[C@@H]1c1ccccc1 (relative stereo) [Example 137]	–	–	IC50 [2]: 0.032 µM
O=C1NN(c2nc3c(Cl)c(Cl)ccc3s2)[C@@H](c2ccccc2)[C@@H]1c1ccccc1 (relative stereo) [Example 86]	–	58	–
O=C1NN(C(=S)Nc2ccc(Cl)c(C(F)(F)F)c2)[C@@H](c2ccccc2)[C@@H]1c1ccccc1 (single isomer, unassigned) [Example 143, (-)-trans-1-[(4-Chloro-3-trifluoromethylphenyl)-aminothiocarbonyl]-4,5-diphenyl-3-pyrazolidinone]	–	–	IC50 [2]: 0.81 µM
COC1=NN(C(=O)Nc2ccc(C(F)(F)F)cc2)[C@@H](c2ccccc2)[C@@H]1c1ccccc1 (relative stereo) [Example 13, 1-[(4-Trifluoromethylphenyl)aminocarbonyl]-3-methoxy-4,5diphenyl-2-pyrazoline]	–	–	inhibition at 10 µM [1]: 67%
CCCCNC(=O)N1NC(=O)[C@H](c2ccccc2)[C@H]1c1ccccc1 (relative stereo) [Example 94]	–	–	inhibition at 10 µM [1]: 50%
O=C(Nc1cccc(C(F)(F)F)c1)N1N[C@@H](c2ccccc2)[C@H](c2ccccc2)C1=O (relative stereo) [Example 82]	–	–	inhibition at 10 µM [1]: 23%
O=C1NN(C(=S)Nc2ccc(Cl)c(C(F)(F)F)c2)[C@@H](c2ccccc2)[C@@H]1c1ccccc1 (single isomer, unassigned) [Example 142, (+)-trans-1-[(4-Chloro-3-trifluoromethylphenyl)-aminothiocarbonyl]-4,5-diphenyl-3-pyrazolidinone]	–	–	IC50 [2]: 0.017 µM
O=C1NN(C(=S)NCc2ccc(Cl)c(Cl)c2)[C@@H](c2ccccc2)[C@@H]1c1ccccc1 (relative stereo) [Example 138]	–	–	IC50 [2]: 0.069 µM
CN1C(=O)[C@H](c2ccccc2)[C@@H](c2ccccc2)N1C(=O)Nc1ccc(C(F)(F)F)cc1 (relative stereo) [Example 67]	–	–	inhibition at 10 µM [1]: 46%
CN(Cc1ccccc1)C(=O)N1NC(=O)[C@@H](c2ccccc2)[C@@H]1c1ccccc1 (relative stereo) [Example 97]	–	–	inhibition at 10 µM [1]: 42%

Continued, in another order:

IC50 [1] [µM]	inhibition at 10 µM [2] [%]	SMILES	also measured
0.057	77	O=C1NN(C(=O)Nc2ccc(I)cc2)[C@@H](c2ccccc2)[C@@H]1c1ccccc1 (relative stereo) [Example 21]	–
–	37	O=C1NN(C(=S)Nc2ccccc2)[C@H](c2ccccc2)[C@H]1c1ccccc1 (relative stereo) [Example 60]	inhibition at 10 µM [1]: 34%
0.87	78	CC(NC(=O)N1NC(=O)[C@@H](c2ccccc2)[C@@H]1c1ccccc1)c1ccc(Br)cc1 (relative stereo) [Example 103]	–
1.3	87	O=C1NN(C(=O)NCCCc2ccccc2)[C@@H](c2ccccc2)[C@@H]1c1ccccc1 (relative stereo) [Example 108]	–
0.45	33	O=C1NN(C(=O)Nc2ccc(OCCc3ccccc3)cc2)[C@@H](c2ccccc2)[C@@H]1c1ccccc1 (relative stereo) [Example 36]	–
–	75	O=C1NN(C(=O)Nc2ccc(Oc3ccccc3)cc2)[C@@H](c2ccccc2)[C@@H]1c1ccccc1 (relative stereo) [Example 37]	inhibition at 1 µM [1]: 82%
0.39	78	O=C1NN(C(=O)NC2CCc3ccccc3C2)[C@@H](c2ccccc2)[C@@H]1c1ccccc1 (relative stereo) [Example 4, 1-[(2-[1,2,3,4-Tetrahydronaphthyl])aminocarbonyl]-4,5-diphenyl-3-pyrazolidinone]	–
0.9	47	C[C@@H](NC(=O)N1NC(=O)C(c2ccccc2)C1c1ccccc1)c1cccc2ccccc12 (some centres unmarked) [Example 104]	–
–	13	O=C1NN(C(=O)NCc2ccccc2)[C@@H](c2ccccc2)[C@@H]1c1ccccc1 (relative stereo) [Example 96]	inhibition at 10 µM [1]: 42%
0.37	–	O=C1NN(C(=O)Nc2ccc(Br)cc2)[C@@H](c2ccccc2)[C@@H]1c1ccccc1 (single isomer, unassigned) [Example 140, (-)-trans-1-[(4-Bromophenyl)aminocarbonyl]-4,5-diphenyl-3-pyrazolidinone]	–
–	94	O=C1NN(C(=O)Nc2ccc3ccccc3c2)[C@@H](c2ccccc2)[C@@H]1c1ccccc1 (relative stereo) [Example 91]	–
